Results published in BigSolDB 2.1.

COc1c(O)cc2c(c1O)[C@@H]1O[C@H](CO)[C@@H](O)[C@H](O)[C@H]1OC2=O
solubility (mole fraction)
Settings	298.15 K	303.15 K	308.15 K	313.15 K	318.15 K
in DMSO	0.0168	0.0182	0.0198	0.0212	0.0229
in water	7.5e-05	9.88e-05	0.000123	0.000151	0.000185
